A word on the NOAEL: it is the highest tested level that showed no adverse finding.

The test system of one data set is Rattus norvegicus. To be noted: for LD50: acute, mortality.
For a further data set, the system named is Folsomia candida. To be noted: chronic/long-term; duration: 14 days; reproduction.
The next data set relates to Pimephales promelas. To be noted: chronic/long-term; duration: 36 days; clinical signs.
A further data set concerns Daphnia pulex. To be noted: chronic/long-term; duration: 21 days; reproduction.
Another data set concerns Lepomis macrochirus. To be noted: acute; duration: 96 hours; mortality.
The subject of another data set is Mus musculus. The note with it: reproduction developmental; organ weight.
In the next data set the test system is Apis mellifera. The note with it: acute, mortality.
The next data set deals with Colinus virginianus. The note with it: acute, oral, mortality.
The next data set concerns Oncorhynchus mykiss. The note with it: acute; duration: 96 hours; mortality.

In the data set on Rattus norvegicus, `CS(=O)(=O)c1ccc(C(=O)O)c(N)c1` [2-Amino-4-(methylsulfonyl)benzoic acid] gave an LD50 of over 5000 mg/kg.

Regarding `CS(=O)(=O)c1ccc(C(=O)C2C(=O)CCCC2=O)c([N+](=O)[O-])c1` [Mesotrione], the LC50 in the data set on Tagia sp. (acute, mortality) was over 2000 mg/kg; in the data set with Lepomis macrochirus it was over 120 µg/mL; with Anas platyrhynchos (short-term, oral, feed, mortality) it was over 5200 mg/kg; with Colinus virginianus (diet) it was over 5200 mg/kg; with Oncorhynchus mykiss, over 120 µg/mL. Also, the NOEC was found to be 10.8 mg/kg in the data set with Tagia sp. (chronic/long-term, reproduction); 50.5 mg/kg with Folsomia candida; 12.5 mg/L in the data set on Pimephales promelas; 180 mg/L in the data set with Daphnia pulex. In addition, the LD50 is over 5000 mg/kg in the data set on Rattus norvegicus (oral); 52.5 µg/piece in the data set on Apis mellifera (dermal); over 11 µg/piece with Apis mellifera (oral, unspecified); over 2000 mg/kg in the data set with Colinus virginianus. For the same molecule, the NOEL with Rattus norvegicus (reproduction developmental, organ weight) is 0.3 mg/kg-day; in the data set with Anas platyrhynchos (reproductive), 20.6 mg/kg-day. Also, the NOAEL in the data set on Mus musculus is 2 mg/kg-day.

For the origin of these results see EPA's ToxValDB 9.5 (doi:10.2903/j.efsa.2016.4419).
